In patent US9062066B2, “Anti-inflammatory compound having inhibitory activity against multiple tyrosine kinases and pharmaceutical composition containing same” (KOREA INSTITUTE OF SCIENCE AND TECHNOLOGY, priority 2010, dated 2015):

How the values were obtained:
[1] = system: house mite allergic substance-induced asthma in mice; assay: house mite allergen asthma animal model; type: in vivo; settings: for mucin in lung tissue (periodic Schiff staining): 20 ul intratracheal, LCB 03-0110 0.1%, Budesonide 0.03%
[2] = system: IL-12 synthesis in J774A.1 macrophage; assay: cells; settings: Mus musculus, J774.A1, read-out: inhibition of LPS-induced IL-12 synthesis
Fgr tyrosine kinase = Fgr tyrosine kinase (Homo sapiens (Human), UniProt P09769); assay: in vitro Fgr tyrosine kinase inhibition; type: biochemical; settings: read-out: % inhibition against Fgr
Sequence of Fgr tyrosine kinase (P09769 whole entry): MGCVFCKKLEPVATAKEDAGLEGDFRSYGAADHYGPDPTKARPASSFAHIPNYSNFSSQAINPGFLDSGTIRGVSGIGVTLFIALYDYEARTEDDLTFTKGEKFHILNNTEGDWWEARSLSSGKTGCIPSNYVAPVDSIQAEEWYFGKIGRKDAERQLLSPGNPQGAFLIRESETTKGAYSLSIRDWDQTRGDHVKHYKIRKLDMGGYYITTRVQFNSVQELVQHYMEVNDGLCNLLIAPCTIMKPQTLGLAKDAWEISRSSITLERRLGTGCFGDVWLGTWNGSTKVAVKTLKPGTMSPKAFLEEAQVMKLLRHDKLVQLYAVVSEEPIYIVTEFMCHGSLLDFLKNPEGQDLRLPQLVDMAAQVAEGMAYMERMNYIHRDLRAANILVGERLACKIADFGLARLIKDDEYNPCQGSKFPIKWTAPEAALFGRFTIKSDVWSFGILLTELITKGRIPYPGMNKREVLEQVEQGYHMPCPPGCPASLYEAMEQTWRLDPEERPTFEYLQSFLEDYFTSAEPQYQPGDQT

RBL-2H3 mast cells = assay: cells; settings: Rattus norvegicus, RBL-2H3, read-out: inhibition of hexosaminidase release (degranulation)
[3] = system: NO synthesis in J744A.1 macrophage; assay: inhibition of nitric oxide (NO) synthesis in LPS-activated macrophages (Griess reagent); type: cell-based; settings: 24 h, read-out: Inhibition (%) of NO synthesis
[4] = system: TNCB-induced atopic dermatitis in Nc/Nga mice; settings: 0.1% transdermal every day for two weeks
[5] = system: oxazolone-induced skin inflammation of Balb/C mouse ears; assay: mouse skin inflammatory model induced by oxazolone (ear thickness); type: in vivo; settings: mouse, in vivo
How it was run: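 Oxazolone was used to induce skin inflammation in the ears of 8-week-old Balb/C mice. Ear thickness was measured by caliper before induction, again at 36 h to capture inflammatory swelling, and averaged per group (n=4).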

[6] = system: TNF-α synthesis in J744A.1 macrophages; assay: inhibition of TNF-α synthesis in LPS-activated macrophages (ELISA); type: cell-based; settings: Macrophage, 6 h, read-out: Inhibition (%) of TNF-α synthesis
Lyn tyrosine kinase = Lyn tyrosine kinase (Homo sapiens (Human), UniProt P07948); assay: in vitro Lyn tyrosine kinase inhibition; type: biochemical; settings: read-out: % inhibition against Lyn
Sequence of Lyn tyrosine kinase (P07948 whole entry, the tested form may be a part): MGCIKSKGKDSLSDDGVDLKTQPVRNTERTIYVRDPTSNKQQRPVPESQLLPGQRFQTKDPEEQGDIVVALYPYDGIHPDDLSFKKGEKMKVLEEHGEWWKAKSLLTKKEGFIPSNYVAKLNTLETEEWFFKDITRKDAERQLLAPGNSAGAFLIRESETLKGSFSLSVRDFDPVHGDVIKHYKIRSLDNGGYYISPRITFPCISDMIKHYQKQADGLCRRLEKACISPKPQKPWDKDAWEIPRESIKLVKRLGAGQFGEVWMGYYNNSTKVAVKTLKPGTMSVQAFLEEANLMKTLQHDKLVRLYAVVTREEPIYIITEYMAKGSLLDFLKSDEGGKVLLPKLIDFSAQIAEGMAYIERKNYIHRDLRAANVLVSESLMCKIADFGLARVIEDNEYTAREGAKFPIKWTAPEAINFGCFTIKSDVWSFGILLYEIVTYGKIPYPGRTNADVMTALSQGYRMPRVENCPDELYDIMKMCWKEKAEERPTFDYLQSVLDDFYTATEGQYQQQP

DDR2 tyrosine kinase = DDR2 tyrosine kinase (Homo sapiens (Human), UniProt Q16832); assay: in vitro DDR2 tyrosine kinase inhibition (GST-fused kinase domain); type: biochemical; settings: read-out: % inhibition against DDR2
Sequence of DDR2 tyrosine kinase (Q16832 563-849): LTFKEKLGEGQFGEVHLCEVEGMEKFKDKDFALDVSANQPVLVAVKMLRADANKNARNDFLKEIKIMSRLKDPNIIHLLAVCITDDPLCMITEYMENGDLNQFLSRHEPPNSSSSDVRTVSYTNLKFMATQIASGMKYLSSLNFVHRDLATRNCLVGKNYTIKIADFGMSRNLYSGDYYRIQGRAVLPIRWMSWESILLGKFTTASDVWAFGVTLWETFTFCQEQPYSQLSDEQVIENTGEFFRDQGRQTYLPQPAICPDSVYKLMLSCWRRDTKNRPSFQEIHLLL

DDR1 tyrosine kinase = DDR1 tyrosine kinase (Homo sapiens (Human), UniProt Q08345); assay: in vitro DDR1 tyrosine kinase inhibition (GST-fused kinase domain); type: biochemical; settings: read-out: % inhibition against DDR1
Sequence of DDR1 tyrosine kinase (Q08345 610-905): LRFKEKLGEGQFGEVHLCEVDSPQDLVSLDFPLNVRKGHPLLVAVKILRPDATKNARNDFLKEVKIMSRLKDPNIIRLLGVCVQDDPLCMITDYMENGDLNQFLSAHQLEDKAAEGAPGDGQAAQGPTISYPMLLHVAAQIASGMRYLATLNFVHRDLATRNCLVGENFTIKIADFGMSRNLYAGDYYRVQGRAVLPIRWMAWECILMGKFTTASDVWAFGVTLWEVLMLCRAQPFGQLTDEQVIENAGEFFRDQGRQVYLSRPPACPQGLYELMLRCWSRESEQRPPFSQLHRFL

Hck tyrosine kinase = Hck tyrosine kinase (Homo sapiens (Human), UniProt P08631); assay: in vitro Hck tyrosine kinase inhibition; type: biochemical; settings: read-out: % inhibition against Hck
Sequence of Hck tyrosine kinase (P08631 whole entry): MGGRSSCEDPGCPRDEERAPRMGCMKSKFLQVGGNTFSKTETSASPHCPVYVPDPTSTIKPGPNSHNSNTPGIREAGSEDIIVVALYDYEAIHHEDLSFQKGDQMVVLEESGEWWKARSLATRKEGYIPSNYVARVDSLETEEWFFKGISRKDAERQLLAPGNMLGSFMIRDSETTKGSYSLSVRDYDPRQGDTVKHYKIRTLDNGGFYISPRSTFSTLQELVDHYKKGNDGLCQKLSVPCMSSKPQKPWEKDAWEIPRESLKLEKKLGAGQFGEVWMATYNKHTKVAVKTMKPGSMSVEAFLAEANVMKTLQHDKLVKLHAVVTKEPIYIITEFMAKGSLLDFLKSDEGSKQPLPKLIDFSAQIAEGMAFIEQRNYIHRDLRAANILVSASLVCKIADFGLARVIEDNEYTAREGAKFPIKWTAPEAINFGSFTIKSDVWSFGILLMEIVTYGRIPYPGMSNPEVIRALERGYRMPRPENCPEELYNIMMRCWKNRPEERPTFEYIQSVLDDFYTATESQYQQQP

[7] = system: α-smooth muscle actin protein expression in skin fibroblast cells; assay: inhibition of α-smooth muscle actin expression in fibroblast activated by type I collagen and TGF-β1 (western blotting); type: cell-based, Balb/C mouse; settings: Mus musculus, 48 h, read-out: Inhibition (%) of α-smooth muscle actin increase
How it was run: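 α-Smooth muscle actin protein was detected by western blotting with chemiluminescence on X-ray film. Levels were quantified by densitometry of the band.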

[8] = system: full excisional ear wounds in New Zealand white rabbits; settings: 0.1% topical

Row | SMILES | mucin in lung tissue (periodic Schiff staining) [1] | inhibition at 1 µM [2] | inhibition at 1 µM (Fgr tyrosine kinase) | inhibition at 0.3 µM (RBL-2H3 mast cells) | inhibition at 10 µM [3] | reduction of epidermal thickness compared to the TNCB group [4] | reduction of mast cell count compared to the TNCB group [4] | reduction of serum IgE level compared to the TNCB group [4] | reduction of transepidermal water loss (TEWL) compared to the TNCB group [4] | eosinophil penetration into lung tissue ([1]; 20 ul of 0.1% intratracheal) | eotaxin in BALF ([1]; 20 ul of 0.1% intratracheal) | Inhibition (%) of increase of ear thickness [5] | inhibition at 10 µM [6] | inhibition at 1 µM (Lyn tyrosine kinase) | inhibition at 1 µM (DDR2 tyrosine kinase) | inhibition at 1 µM (DDR1 tyrosine kinase) | inhibition at 1 µM (Hck tyrosine kinase) | inhibition at 0.5 µM [7] | wound closing rate ([8]; 150 μL per wound, every three days, versus carrier solution) | macrophages (F4/80) and activated myoblast cells (alpha smooth muscle actin) in wound tissue ([8]; three days after wounding)
1 | CCCC1O[C@@H]2C[C@H]3[C@@H]4CCC5=CC(=O)C=C[C@]5(C)[C@H]4[C@@H](O)C[C@]3(C)[C@]2(C(=O)CO)O1 (stereo partly drawn) [Budesonide, reference compound] | decreased the extent of the staining |  |  |  |  |  |  |  |  |  |  |  |  |  |  |  |  |  |  | 
2 | Oc1cccc(Nc2ccnc3cc(-c4cccc(CN5CCOCC5)c4)sc23)c1 [LCB 03-0110, 3-(2-(3-(morpholinomethyl)phenyl)thieno[3,2-b]pyridin-7-ylamino)phenol] | suppressed mucin synthesis similarly to the positive control | ~100% | > 80% | ≥ 80% | 97% | more than 60% | approximately 25% | more than 20% | more than 30% | suppressed eosinophil penetration into lung tissue | suppression of eotaxin | 72% | 64% | > 90% | > 90% | > 90% | > 80% | 82% | closed at a higher rate | suppressed the activation of macrophages and myoblast cells with a statistical significance
